Laboratory results: PMC7616463, “Peptidic boronic acid Plasmodium falciparum SUB1 inhibitors with improved selectivity over human proteasome” (Journal of medicinal chemistry, 2024)
“And” between values parts separate entries of the source, which are not always exact repeats. Equal values may be shown once. Read-outs that look alike come from different tables or passages of the source.

Experiments:
[1] = system: P. falciparum line 1AC5 (8-10-fold reduced PfSUB1); experiment: Parasite growth assay, PfSUB1 knock-down 1AC5 line; format: cell-based, Plasmodium falciparum; conditions: for EC50: Plasmodium falciparum, 96 h, read-out: EC50 parasite growth, 1AC5 line
Excerpt: (§1) The DiCre-expressing P. falciparum line B11 (derived from a 3D7 background) has been described in full previously.[45] To generate a mutant line selectively expressing reduced levels of PfSUB1, we exploited the anhydrotetracycline (aTc)-inducible TetR aptamer system described by Niles and colleagues[46] and subsequently adapted by Rajaram et al.[47] Briefly, the B11 line was first modified by the incorporation into the genomic Pfs47 locus of a cassette for constitutive expression of a TetR-DOZI fusion protein. The 3’ flanking region of the SUB1 gene was then modified by incorporation of 10 Tet repressor-binding aptamers, following by limiting dilution cloning to obtain a genetically homogenous line called 1AC5. […] Complete details of the characterization of this parasite line will be provided in a separate manuscript.
(§2) The effects of test compounds on in vitro growth of the B11 and 1AC5 P. falciparum lines was determined by flow cytometry as described previously.[48] Briefly, synchronous ring-stage parasites at 0.1% parasitaemia and 2% haematocrit were dispensed into flat-bottomed 96-well culture plates (200 ul per well) each containing 1 ul of appropriate serial dilutions of boronic acid or control antimalarial compounds in DMSO. Control wells contained DMSO only. Following incubation in sealed, humidified gassed chambers at 37°C for 96 h to allow the parasites to undergo two entire cycles of erythrocytic growth, cells were fixed, stained with SYBR green and analysed by flow cytometry on a BD FACSVerse™ using BD FACSuite™ software. Data were analysed using FlowJo software. EC50 values and statistical data were determined from dose-response curves generated using GraphPad Prism 10 (GraphPad Software).

P. falciparum line B11 = experiment: Parasite growth assay, wild-type B11 line; format: cell-based; conditions: Plasmodium falciparum, 96 h, read-out: EC50 parasite growth, B11 line
Excerpt: as §1, with “To generate a mutant line selectively expressing reduced levels of PfSUB1, we exploited the anhydrotetracycline (aTc)-inducible TetR aptamer system described by Niles and colleagues[46] and subsequently adapted by Rajaram et al.[47]” left out
as §2

HepG2 cells = experiment: Mammalian cell cytotoxicity assay (resazurin); format: cell-based; conditions: for CC50 (concentration that reduced cell viability by 50%): HepG2, 48 h treatment, resazurin, triplicate, tested up to 30 μM (1a), 200 μM (4c), 150 μM (tipifarnib)
Method: HepG2 cells were cultured in Dulbecco’s Modified Eagle Medium with F12 GlutaMAX (DMEM/F12 GlutaMAX) (Gibco) supplemented with 10% (v/v) heat-inactivated foetal calf serum (FCS), 1% L-glutamine and 1% penicillin-streptomycin (10,000 U/ml), and maintained in a humidified 5% CO2 incubator at 37°C. The culture medium was changed every 2-3 days and cells were passaged when a confluency of 75-80% was reached. At passage 2 or above, HepG2 cells were harvested using 0.25% trypsin-0.53 mM EDTA (Gibco). Cell counts and cell viability were determined by an automated cell counting machine (vi-CELL, Beckman) and seeded at a density of 1x10^4-5x10^5 cells per well in a transparent flat-bottom 96-well plate (Corning), and maintained in a humidified 5% CO2 incubator at 37°C. […] As a vehicle control, 1% DMSO was used. After 48 hs, media was removed and replaced with 100 μl media containing 10% resazurin solution (Invitrogen) and incubated for 4 h at 37°C in 5% CO2. After 4 h, the solution was transferred to an opaque 96-well plate (Corning) to measure reduction of resazurin to resorufin using a SpectraMax M5 microplate reader (Molecular Devices LLC) (ex. 560 nm, em. 590 nm). Cells without treatment compounds were used to determine 100% viability. Cell viability was determined by measuring fluorescence as a % of solvent control. Concentration viability response curves, CC50 values, mean CC50 value and standard error were generated using GraphPad Prism 10 (GraphPad Software).

[2] = target: T1, recombinant PfSUB1 (rPfSUB1) (Plasmodium falciparum, UniProt Q8I0V0); experiment: PfSUB1 enzyme assay (recombinant PfSUB1, fluorogenic peptide substrate); format: biochemical
T1 construct: made in house
Method: The proteolytic activity of rPfSUB1 was monitored by the cleavage of the fluorogenic peptidic substrate SERA4st1F-6R12 (Ac-[…]-OH) and has been described previously.[28] Briefly, chymotrypsin treated rPfSUB1 (expressed and purified as described before […] was stored at −80 °C as a 228 U/mL stock in 20 mM Tris−HCl pH 8.2, 150 mM NaCl, 10% glycerol, and diluted for use (1:500) in reaction buffer (20 mM Tris−HCl pH 8.2, 150 mM NaCl, 12 mM CaCl2, 25 mM CHAPS). Peptidic boronic acid inhibitors were dissolved in 100% DMSO at 20 mM, then further diluted in DMSO to generate stock solutions ranging from 500 to 0.01 μM and then used diluted 1:100 in the enzyme reactions. All reactions were performed in wells of white 96-well microwell plates (Nunc); 50 μL diluted rPfSUB1 was preincubated for 5 min with 1 μL each of the serially diluted boronic acid inhibitors, followed by addition of 50 μL substrate solution (0.1 μM final). Subsequent fluorescence increase was continuously monitored using a SpectraMax M5e plate reader and SoftMax Pro-6.3 software, with readings taken every 3 min for 60 min using excitation and emission values of 552 and 580 nm, respectively. […] All experiments were performed in duplicate.

[3] = system: human 20S proteasome (H20S), chymotrypsin-like β5 activity; experiment: Human 20S proteasome kinetic assay (chymotrypsin-like β5 activity); format: biochemical; conditions: PfSUB1 vs H20S inhibition
Method: (§3) The fluorescent Proteasome substrate LLVY-R110 (ex: 490 nm, Em:525 nm) (#MAK172, Sigma-Aldrich) was used to measure the chymotrypsin-like activity (β5) of the human 20S proteasome and was prepared according to the activity assay kit instructions. Cleavage of this peptide generated intense green fluorescence due to the R110 group and was monitored at 520-530 nm with excitation at 480-500 nm. The purified human 20S proteasome (BML-PW8720-0050, EnzoSciences), stored at 1mg/ml in 20 mM Tris-HCl pH 7.2, 1mM EDTA, 1mM DTT 1mM NaN3, 50% glycerol was diluted in TRIS-buffered saline (TBS, pH 7.4) to an intermediate concentration of 0.44 μM. […] The reactions were performed in white 96-well fluorescent microtiter-plate format (Nunc). The Substrate solution was added first (100 μl), followed by 1 μl of the inhibitor (50 μM intermediate stock) and 1 μl of the H20S proteasome at 0.44 μM. The IC50s were determined for a selection of potent PfSUB1 inhibitors. After sequential dilution of the inhibitors in 100% DMSO, 1 μl of each dilution was used in a 100 μl reaction containing the fluorescent substrate. The reaction was initiated by the addition of 1 μl of the 20S proteasome intermediate stock solution. The fluorescence increase was monitored using a SpectraMax M5e plate reader and SoftMax Pro-6.3 software Measure activity on a plate reader (ex: 490 nm, Em: 525 nm) with the photomultiplier tube (PMT) set to medium with readings every 3 min for one hour. All measurements were done in duplicate. The progress curves were plotted within GraphPad Prism 9.5.0.

[4] = target: T2, human 20S proteasome (H20S), chymotrypsin-like β5 activity (Homo sapiens, UniProt P20618+P28074); experiment: as above; format: biochemical; conditions: purified human 20S proteasome, β5 activity, substrate LLVY-R110, fluorescence; duplicate; read-out: IC50, nM H20S inhibition
T2 construct: variant as stated: H20S
Method: as §3

[5] = 2 erythrocytic cycles, SYBR green flow cytometry, triplicate, 95% confidence interval in parentheses

T1 sequence (Q8I0V0 218-688): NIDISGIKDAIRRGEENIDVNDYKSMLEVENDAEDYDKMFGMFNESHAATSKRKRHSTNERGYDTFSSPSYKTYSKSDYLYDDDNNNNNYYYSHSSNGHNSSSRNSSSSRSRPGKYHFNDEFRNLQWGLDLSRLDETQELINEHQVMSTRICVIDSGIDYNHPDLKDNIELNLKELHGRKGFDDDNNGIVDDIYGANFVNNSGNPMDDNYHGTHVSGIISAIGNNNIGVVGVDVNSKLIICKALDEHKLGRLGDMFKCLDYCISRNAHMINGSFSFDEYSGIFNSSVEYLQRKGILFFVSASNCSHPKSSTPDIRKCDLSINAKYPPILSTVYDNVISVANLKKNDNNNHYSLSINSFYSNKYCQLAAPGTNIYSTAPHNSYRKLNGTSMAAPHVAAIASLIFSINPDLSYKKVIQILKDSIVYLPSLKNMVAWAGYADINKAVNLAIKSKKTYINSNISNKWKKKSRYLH

| Structure (SMILES) | EC50 [1] | EC50 (P. falciparum line B11; [5]) | CC50 (concentration that reduced cell viability by 50%) (HepG2 cells) | factor by which less toxic to HepG2 than 1a (HepG2 cells; HepG2 CC50 of 4c vs 1a) | fold higher sensitivity of 1AC5 line than of B11 line ([1]; growth inhibition, 1AC5 vs wild-type B11) | IC50 [2] | selectivity versus H20S [3] | IC50 [4] | EC50 (P. falciparum line B11) |
| --- | --- | --- | --- | --- | --- | --- | --- | --- | --- |
| C[C@H]1[C@H](OC(=O)CCC(=O)O)O[C@@H]2O[C@@]3(C)CC[C@H]4[C@H](C)CC[C@@H]1[C@@]24OO3 [Artesunate, artesunate, reference compound] | 4.87 nM | 3.7 nM | – | – | – | – | – | – | – |
| CC[C@H](C)[C@H](NC(=O)[C@@H](NC(=O)c1cc(C)cc(C)c1)C1CCCC1)C(=O)NCC(=O)N[C@H]1CCC(=O)OB1O [4c, N-((S)-1-cyclopentyl-2-(((2S,3S)-1-((2-(((R)-2-hydroxy-6-oxo-1,2-oxaborinan-3-yl)amino)-2-oxoethyl)amino)-3-methyl-1-oxopentan-2-yl)amino)-2-oxoethyl)-3,5-dimethylbenzamide] | 160 nM | 2260 nM | 296000 nM | 27 fold | 13 fold and ~ 13 fold | 15.3 ± 0.1 nM | > 60 fold | – | – |
| Cn1cncc1[C@@](N)(c1ccc(Cl)cc1)c1ccc2c(c1)c(-c1cccc(Cl)c1)cc(=O)n2C [Tipifarnib, reference compound] | – | – | 30000 nM | – | – | – | – | – | – |
| CC(=O)N[C@H](C(=O)N[C@H](C(=O)NCC(=O)N[C@@H](C)B(O)O)C(C)C)C1CCCC1 [1a] | 130 nM | 150 nM | 11000 nM | – | – | – | – | 32.8 ± 1.7 nM | – |
| CCN(CC)CCCC(C)Nc1ccnc2cc(Cl)ccc12 (stereo not shown) [CQ, chloroquine, reference compound] | 5.74 nM | – | – | – | – | – | – | – | 5.36 nM |
